Measured values published in patent publication US20250171437A1 (Agios Pharmaceuticals,Inc., priority 2022, published 2025).

Molecular target: T1, human PAH with the R408W mutation (A375 R408W cells) (Homo sapiens, UniProt P00439, R408W)
T1 construct: expressed in transfected cells
T1 sequence (P00439 1-452 R408W): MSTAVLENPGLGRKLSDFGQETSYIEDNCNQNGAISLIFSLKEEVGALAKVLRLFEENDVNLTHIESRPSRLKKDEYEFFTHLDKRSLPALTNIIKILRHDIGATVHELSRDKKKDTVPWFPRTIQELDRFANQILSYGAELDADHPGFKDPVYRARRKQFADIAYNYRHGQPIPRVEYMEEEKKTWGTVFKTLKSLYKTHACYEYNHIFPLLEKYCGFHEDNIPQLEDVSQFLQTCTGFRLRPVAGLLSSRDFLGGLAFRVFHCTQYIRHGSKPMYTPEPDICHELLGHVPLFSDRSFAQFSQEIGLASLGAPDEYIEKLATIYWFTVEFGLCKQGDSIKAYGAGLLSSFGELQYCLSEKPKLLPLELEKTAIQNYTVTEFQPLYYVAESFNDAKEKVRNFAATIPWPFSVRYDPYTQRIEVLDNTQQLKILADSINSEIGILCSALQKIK
Assay: Cell Based Phenylalanine Flux Assay
Details: 24 hrs with compound, then 20 μM sepiapterin and 800 μM 13C9,15N-Phenylalanine for 4 hours, 13C-Tyrosine by LC-MS, average where tested multiple times
In short: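 LC-MS quantitation of 13C-tyrosine in media gave AC50 values. Stable A375 R408W PAH cells were preincubated 24 h with compound, then fed 800 μM labelled Phe plus 20 μM sepiapterin for 4 h. Dose curves were 10-point, tested in duplicate, averaged over repeat runs.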

[1] = A375 cells expressing R408W PAH

AC50 [1] [µM]	AC50 (A375 R408W cells) [µM]	Compound
1 to 5	–	O=C(c1ncc(Cl)s1)N1CCc2[nH]cnc2C1c1nc2cc(F)ccc2o1 (centres unmarked)
≥ 5	–	COCc1ccc2c(C(=O)N3CCc4[nH]cnc4C3c3nc4ccc(C)cc4o3)cnn2c1 (centres unmarked) [listing 1 of 2 here]
≥ 5	–	O=C(C1CC1(F)F)N1CCc2[nH]cnc2C1c1nc2cc(F)ccc2o1 (centres unmarked)
≥ 5	–	COCCNc1ccc2c(C(=O)N3CCc4[nH]cnc4C3c3nc4cc(F)ccc4o3)cnn2c1 (centres unmarked) [listing 1 of 2 here]
≥ 5	–	O=C(c1cnc(N2CCC(F)CC2)o1)N1CCc2[nH]cnc2C1c1nc2cc(F)ccc2o1 (centres unmarked) [listing 1 of 2 here]
≥ 5	–	O=C(c1cnn2cc(OCCn3cccn3)ccc12)N1CCc2[nH]cnc2C1c1nc2cc(F)ccc2o1 (centres unmarked)
≥ 5	–	O=C(c1cnn2cc(CN3CCOCC3)ccc12)N1CCc2[nH]cnc2C1c1nc2cc(F)ccc2o1 (centres unmarked) [listing 1 of 2 here]
≥ 5	–	O=C(c1nccs1)N1CCc2[nH]cnc2C1c1nc2ccc(Br)cc2o1 (centres unmarked) [listing 1 of 2 here]
≥ 5	–	CN(C)CCOc1ccc2c(C(=O)N3CCc4[nH]cnc4C3c3nc4cc(F)ccc4o3)cnn2c1 (centres unmarked) [listing 1 of 2 here]
1 to 5	–	COCc1ccc2c(C(=O)N3CCc4[nH]cnc4C3c3nc4ccc(C)cc4o3)cnn2c1 (centres unmarked) [listing 2 of 2 here]
1 to 5	–	COCCNc1ccc2c(C(=O)N3CCc4[nH]cnc4C3c3nc4cc(F)ccc4o3)cnn2c1 (centres unmarked) [listing 2 of 2 here]
1 to 5	–	O=C1CN(CCc2ccc3c(C(=O)N4CCc5[nH]cnc5C4c4nc5cc(F)ccc5o4)cnn3c2)CCN1 (centres unmarked)
1 to 5	–	O=C(c1cnc(N2CCC(F)CC2)o1)N1CCc2[nH]cnc2C1c1nc2cc(F)ccc2o1 (centres unmarked) [listing 2 of 2 here]
1 to 5	–	O=C(c1nnc(N2CC(F)C2)o1)N1CCc2[nH]cnc2C1c1nc2cc(F)ccc2o1 (centres unmarked)
1 to 5	–	O=C(c1nnc(N2CCC(F)CC2)o1)N1CCc2[nH]cnc2C1c1nc2cc(F)ccc2o1 (centres unmarked)
1 to 5	–	O=C(c1nnc(N2CCOCC2)o1)N1CCc2[nH]cnc2C1c1nc2cc(F)ccc2o1 (centres unmarked)
1 to 5	–	O=C(c1cnn2cc(CN3CCOCC3)ccc12)N1CCc2[nH]cnc2C1c1nc2cc(F)ccc2o1 (centres unmarked) [listing 2 of 2 here]
1 to 5	–	O=C(c1nccs1)N1CCc2[nH]cnc2C1c1nc2ccc(Br)cc2o1 (centres unmarked) [listing 2 of 2 here]

AC50 [1] [µM]	AC50 (A375 R408W cells) [µM]	Compound
1 to 5	–	O=C(c1nnc(NC2CC2)o1)N1CCc2[nH]cnc2C1c1nc2cc(F)ccc2o1 (centres unmarked)
1 to 5	–	CN(C)CCOc1ccc2c(C(=O)N3CCc4[nH]cnc4C3c3nc4cc(F)ccc4o3)cnn2c1 (centres unmarked) [listing 2 of 2 here]
≥ 5	–	CN(C)CCCc1ccc2c(C(=O)N3CCc4[nH]cnc4C3c3nc4cc(F)ccc4o3)cnn2c1 (centres unmarked)
≥ 5	–	Cc1ncoc1C(=O)N1CC2(CC2)c2[nH]cnc2C1c1nc2cc(F)ccc2o1 (centres unmarked)
≥ 5	–	O=C(C1CC1)N1CCc2[nH]cnc2[C@@H]1c1nc2cc(F)ccc2o1 (single isomer, unassigned)
≥ 5	–	CN1C2CCC1CN(c1ccc3c(C(=O)N4CCc5[nH]cnc5C4c4nc5cc(F)ccc5o4)cnn3c1)C2 (single isomer, unassigned) [listing 1 of 2 here]
1 to 5	–	O=C(CCc1cncs1)N1CCc2[nH]cnc2[C@H]1c1nc2c(F)cccc2o1 (single isomer, unassigned)
1 to 5	–	O=C(c1cnn2cc(CN3CCC(F)(F)C3)ccc12)N1CCc2[nH]cnc2[C@H]1c1nc2cc(F)ccc2o1 (single isomer, unassigned)
1 to 5	–	O=C([C@H]1CC1(F)F)N1CCc2[nH]cnc2[C@H]1c1nc2cc(F)ccc2o1 (single isomer, unassigned)
1 to 5	–	O=C(c1cnn2cc(OCCn3cccn3)ccc12)N1CCc2[nH]cnc2[C@H]1c1nc2cc(F)ccc2o1 (single isomer, unassigned)
1 to 5	–	CN1C2CCC1CN(c1ccc3c(C(=O)N4CCc5[nH]cnc5C4c4nc5cc(F)ccc5o4)cnn3c1)C2 (single isomer, unassigned) [listing 2 of 2 here]
–	≤ 0.5	CC(C)(O)c1nc(C(F)F)c(C(=O)N2CCc3[nH]cnc3[C@H]2c2nc3cc(F)ccc3o2)o1 (single isomer, unassigned) [Example 107]
–	1 to 5	CC(C)(O)c1nc(C(F)F)c(C(=O)N2CCc3[nH]cnc3[C@@H]2c2nc3cc(F)ccc3o2)o1 (single isomer, unassigned) [Example 108]
–	1 to 5	CC(O)c1nc(Br)c(C(=O)N2CCc3[nH]cnc3[C@@H]2c2nc3cc(F)ccc3o2)o1 (single isomer, unassigned) [Example 223]
–	1 to 5	CC(O)c1nc(Br)c(C(=O)N2CCc3[nH]cnc3[C@@H]2c2nc3cc(F)ccc3o2)o1 (single isomer, unassigned) [Example 224]
–	1 to 5	CC(O)c1nc(Br)c(C(=O)N2CCc3[nH]cnc3[C@H]2c2nc3cc(F)ccc3o2)o1 (single isomer, unassigned) [Example 225]
–	≤ 0.5	CC(O)c1nc(Br)c(C(=O)N2CCc3[nH]cnc3[C@H]2c2nc3cc(F)ccc3o2)o1 (single isomer, unassigned) [Example 226]
–	1 to 5	CC(O)c1nc(Cl)c(C(=O)N2CCc3[nH]cnc3[C@@H]2c2nc3cc(F)ccc3o2)o1 (single isomer, unassigned) [Example 233]

Compound	AC50 [1] [µM]	AC50 (A375 R408W cells) [µM]
Cc1cccc2nc([C@H]3c4nc[nH]c4CCN3C(=O)c3cnn4cc(N5CCC(O)CC5)ccc34)oc12 (single isomer, unassigned)	≥ 5	–
O=C(c1cn(-c2ccccn2)nc1Cl)N1CCc2[nH]cnc2[C@@H]1c1nc2cc(F)ccc2o1 (single isomer, unassigned)	≥ 5	–
Cc1cccc2nc([C@H]3c4nc[nH]c4CCN3C(=O)c3cnc(C(C)(C)O)o3)oc12 (single isomer, unassigned)	≥ 5	–
O=C(c1cnn2cc(CN3CC(F)C3)ccc12)N1CCc2[nH]cnc2[C@@H]1c1nc2cc(F)ccc2o1 (single isomer, unassigned)	≥ 5	–
CN(C)Cc1nnc(C(=O)N2CCc3[nH]cnc3[C@@H]2c2nc3cc(F)ccc3o2)o1 (single isomer, unassigned)	≥ 5	–
CC(=O)Cn1cc(C(=O)N2CCc3[nH]cnc3[C@H]2c2nc3cc(F)ccc3o2)cn1 (single isomer, unassigned)	≥ 5	–
O=C(c1cn[nH]c1)N1CCc2[nH]cnc2[C@H]1c1nc2cc(F)ccc2o1 (single isomer, unassigned)	≥ 5	–
O=C(c1cnn2cc(N3CCNCC3)ccc12)N1CCc2[nH]cnc2[C@H]1c1nc2cc(F)ccc2o1 (single isomer, unassigned)	≥ 5	–
Cc1nc([C@H](C)O)oc1C(=O)N1CCc2[nH]cnc2C1c1nc2cc(F)ccc2o1 (single isomer, unassigned)	1 to 5	–
CC(C)(O)c1cc(C(=O)N2CCc3[nH]cnc3C2c2nc3ccc(F)cc3o2)on1 (single isomer, unassigned) [4R enantiomer of 2-{5-[4-(6-fluoro-1,3-benzoxazol-2-yl)-1H,4]	≥ 5	–
CNC(C)(C)c1nc(C)c(C(=O)N2CCc3[nH]cnc3C2c2nc3cc(F)ccc3o2)o1 (single isomer, unassigned) [4R enantiomer of (2-{5-[4-(5-fluoro-1,3-benzoxazol-2-yl)-1H,]	≥ 5	–
CC(C)(C)OC(=O)N1CCN(c2ccc3c(C(=O)N4CCc5[nH]cnc5C4c4nc5cc(F)ccc5o4)cnn3c2)CC1 (single isomer, unassigned) [4R enantiomer of tert-butyl 4-{3-[4-(5-fluoro-1,3-benzoxazol]	≥ 5	–
NCCc1ccc2c(C(=O)N3CCc4[nH]cnc4C3c3nc4cc(F)ccc4o3)cnn2c1 (single isomer, unassigned) [4S enantiomer of 2-{3-[4-(5-fluoro-1,3-benzoxazol-2-yl)-1H,4]	≥ 5	–
CN(C)CCNc1ccc2c(C(=O)N3CCc4[nH]cnc4C3c3nc4cc(F)ccc4o3)cnn2c1 (single isomer, unassigned) [4S enantiomer of N-[2-(dimethylamino)ethyl]-3-[4-(5-fluoro-1]	≥ 5	–
